Assay results as given in patent US12577702B2, “Oligonucleotide encoded chemical libraries, related systems, devices, and methods for detecting, analyzing, quantifying, and testing biologics/genetics” (Plexium, Inc., priority 2020, dated 2026).

Molecular target: Cathepsin-D protease (Homo sapiens, UniProt P07339)
Assay: Protease inhibition assay in picowells with compound photo-released from beads
Format: biochemical
Settings: compound released from 10 μm TentaGel bead by UV (365 nm, 77 J/cm^2) to approximately 13 μM; incubated 30 min, 37° C.; λex=480 nm, λem=525 nm
Excerpt: Reagents were placed into wells at 4 degrees C. Ultraviolet light at 365 nm was used to cleave the fluorophore from the bead, thereby releasing the fluorophore and separating it from the quencher. […] This setup with bead-bound pepstatin-A and the aspartyl protease can serve as a positive control.
This bead population was introduced into picowells, then buffer exchanged into a protease inhibition assay, including Cathepsin-D protease and Peptide Q-Fluor substrate (λex=480 nm, λem=525 nm). Wells were encapsulated by air, and entire slide exposed to UV (365 nm, 77 J/cm^2), cleaving the photolabile linker, releasing the compound to reach approximately 13 μM. The flowcell was incubated (30 min, 37° C.).
Greater fluorescence means that the enzyme is more catalytically active. […] Images were captured following UV release and Cathepsin-D assay incubation (λex=480 nm, λem=525 nm). Wells containing positive control beads could be identified spectrally by Cy5 fluorophore (λex=645 nm, λem=665 nm, orange false color).

Sequence of Cathepsin-D protease (P07339 65-412): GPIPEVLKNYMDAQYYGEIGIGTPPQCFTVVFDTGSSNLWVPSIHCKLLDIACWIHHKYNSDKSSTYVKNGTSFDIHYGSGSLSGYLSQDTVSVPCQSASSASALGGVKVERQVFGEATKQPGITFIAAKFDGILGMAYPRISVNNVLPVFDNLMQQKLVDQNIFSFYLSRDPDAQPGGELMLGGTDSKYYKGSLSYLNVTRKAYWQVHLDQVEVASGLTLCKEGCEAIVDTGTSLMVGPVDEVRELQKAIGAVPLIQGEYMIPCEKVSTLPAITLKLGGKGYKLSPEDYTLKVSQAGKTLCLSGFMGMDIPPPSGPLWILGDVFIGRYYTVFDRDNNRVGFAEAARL

Cathepsin-D inhibition (fluorescence of Peptide Q-Fluor substrate in well): no Cathepsin-D inhibition
SMILES: CC(C)[C@H](NC(=O)OCC1c2ccccc2-c2ccccc21)C(=O)O [negative control beads, Fmoc-Valine]
